From ChEMBL document CHEMBL3621131, “Current developments of coumarin-based anti-cancer agents in medicinal chemistry” (Eur J Med Chem, 2015)
Values after ≈ are worked out from the molar mass of the structure shown. Values belong to the compound of their own block, whether it stands above or below them.

Experiments:
DU-145 [1] = experiment: Antiproliferative activity against human DU145 cells assessed as growth inhibition; format: functional
[2] = Antiproliferative activity against human DLD1 cells assessed as growth inhibition; format: functional; conditions: DLD-1
NCI-H157 = experiment: Antiproliferative activity against human NCI-H157 cells assessed as growth inhibition; format: functional
[3] = Antiproliferative activity against human BT20 cells assessed as growth inhibition; format: functional; conditions: BT-20
K562 [4] = experiment: Antiproliferative activity against human K562 cells assessed as growth inhibition; format: functional
[5] = molecular target: T1, M-phase inducer phosphatase 1 (Homo sapiens, UniProt P30304); experiment: Inhibition of human CDC25A phosphatase
T1 sequence (P30304 whole entry): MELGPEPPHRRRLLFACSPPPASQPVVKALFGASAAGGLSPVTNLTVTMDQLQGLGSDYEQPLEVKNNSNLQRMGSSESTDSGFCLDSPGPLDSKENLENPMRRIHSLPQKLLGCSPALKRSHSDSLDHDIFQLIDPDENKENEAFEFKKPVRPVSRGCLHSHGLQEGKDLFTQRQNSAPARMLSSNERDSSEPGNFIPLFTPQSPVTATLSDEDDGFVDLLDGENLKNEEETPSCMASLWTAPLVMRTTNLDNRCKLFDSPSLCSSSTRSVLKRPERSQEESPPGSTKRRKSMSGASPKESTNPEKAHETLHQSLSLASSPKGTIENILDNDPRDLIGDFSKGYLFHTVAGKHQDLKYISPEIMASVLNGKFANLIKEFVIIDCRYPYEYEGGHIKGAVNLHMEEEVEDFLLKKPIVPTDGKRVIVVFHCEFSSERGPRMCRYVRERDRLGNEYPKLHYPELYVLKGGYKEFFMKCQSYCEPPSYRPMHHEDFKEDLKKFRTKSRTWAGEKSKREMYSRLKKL

[6] = molecular target: T2, M-phase inducer phosphatase 2 (Homo sapiens, UniProt P30305); experiment: Inhibition of human CDC25B phosphatase
T2 sequence (P30305 whole entry): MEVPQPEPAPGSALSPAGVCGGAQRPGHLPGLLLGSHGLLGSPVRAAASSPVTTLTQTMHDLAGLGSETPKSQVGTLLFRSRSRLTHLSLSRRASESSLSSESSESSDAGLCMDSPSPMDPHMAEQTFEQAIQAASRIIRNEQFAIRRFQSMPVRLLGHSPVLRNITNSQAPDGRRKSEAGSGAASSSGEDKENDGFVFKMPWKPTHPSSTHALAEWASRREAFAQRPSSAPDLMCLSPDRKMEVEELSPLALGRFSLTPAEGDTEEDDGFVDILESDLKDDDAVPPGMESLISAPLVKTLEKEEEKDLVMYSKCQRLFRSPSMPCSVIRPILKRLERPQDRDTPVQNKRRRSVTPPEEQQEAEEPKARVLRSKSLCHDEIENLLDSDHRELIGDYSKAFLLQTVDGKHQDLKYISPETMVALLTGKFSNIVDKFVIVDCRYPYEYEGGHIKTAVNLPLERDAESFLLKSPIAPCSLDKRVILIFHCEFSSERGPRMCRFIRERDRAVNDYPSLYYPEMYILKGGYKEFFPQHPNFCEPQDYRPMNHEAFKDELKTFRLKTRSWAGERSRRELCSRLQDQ

[7] = molecular target: T3, M-phase inducer phosphatase 3 (Homo sapiens, UniProt P30307); experiment: Inhibition of human CDC25C phosphatase
T3 sequence (P30307 whole entry): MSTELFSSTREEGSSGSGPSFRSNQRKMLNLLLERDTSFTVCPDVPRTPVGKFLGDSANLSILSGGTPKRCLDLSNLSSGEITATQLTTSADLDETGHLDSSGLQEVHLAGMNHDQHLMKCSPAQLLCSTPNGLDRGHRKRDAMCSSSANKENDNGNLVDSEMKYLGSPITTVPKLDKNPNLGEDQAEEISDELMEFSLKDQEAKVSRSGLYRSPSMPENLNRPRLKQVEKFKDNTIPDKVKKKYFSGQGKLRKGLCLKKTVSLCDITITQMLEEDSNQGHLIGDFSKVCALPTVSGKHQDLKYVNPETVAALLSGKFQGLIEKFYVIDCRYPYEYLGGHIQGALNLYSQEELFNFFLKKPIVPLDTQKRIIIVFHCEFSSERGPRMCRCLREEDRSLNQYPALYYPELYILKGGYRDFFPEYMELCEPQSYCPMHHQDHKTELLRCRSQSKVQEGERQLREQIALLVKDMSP

MCF7 [8] = experiment: Antiproliferative activity against human MCF7 cells assessed as growth inhibition; format: functional, cell-based
MDA-MB-231 [9] = experiment: Antiproliferative activity against human MDA-MB-231 cells assessed as growth inhibition; format: functional, cell-based
[10] = Antiproliferative activity against human hTERT-HME1 cells assessed as growth inhibition; format: functional, cell-based
A549 = experiment: Antitumor activity against human A549 cells assessed as cell viability incubated for 72 hrs by MTT assay; format: functional, cell-based; conditions: A549, 72 h
MCF7 [11] = experiment: Antitumor activity against human MCF7 cells assessed as cell viability by MTT assay; format: functional, cell-based
K562 [12] = experiment: Antitumor activity against human K562 cells assessed as cell viability by MTT assay; format: functional, cell-based
MCF7 [13] = experiment: Antiproliferative activity against human MCF7 cells; format: functional, cell-based
HepG2 [14] = experiment: Cytotoxicity against human HepG2 cells assessed as cell viability by MTT assay; format: functional, cell-based
KB = experiment: Antiproliferative activity against human KB cells assessed as growth inhibition; format: functional, cell-based
NCI-H460 = experiment: Antiproliferative activity against human NCI-H460 cells assessed as growth inhibition; format: functional, cell-based
DU-145 [15] = experiment: Antiproliferative activity against human DU145 cells assessed as growth inhibition by tryphan blue exclusion method; format: functional
MCF7 [16] = experiment: Cytotoxicity against human MCF7 cells assessed as cell viability incubated for 72 hrs by SRB assay; format: functional, cell-based; conditions: MCF7, 72 h
HCT-15 = experiment: Cytotoxicity against human HCT15 cells assessed as cell viability incubated for 72 hrs by SRB assay; format: functional, cell-based; conditions: HCT-15, 72 h
SK-N-MC = experiment: Cytotoxicity against human SK-N-MC cells as cell viability by MTT assay; format: functional, cell-based
MDA-MB-231 [17] = experiment: Cytotoxicity against human MDA-MB-231 cells assessed as cell viability by MTT assay; format: functional, cell-based
HepG2 [18] = experiment: Cytotoxicity against human HepG2 cells assessed as cell viability incubated for 72 hrs by SRB assay; format: functional, cell-based; conditions: HepG2, 72 h

Compound: Cc1cc(-c2cc3cc(Cl)ccc3oc2=O)n(-c2nc(-c3ccc(Cl)cc3)cs2)n1
- IC50 (HepG2 [14]): ≤ 3.25 µM

Compound: NCCCCCCCCNC(=O)c1c(O)c2ccccc2oc1=O
- GI50 (DU-145 [15]): < 10 µM

Compound: O=C(/C=C1\c2c(c3ccccc3oc2=O)OC1(c1ccccc1)N1CCCC1)c1ccccc1 (stereo not drawn)
- IC50 (MCF7 [16]): 8 µM
- IC50 (HCT-15): 8 µM

Compound: COc1ccc(-c2csc(-n3nc(C)cc3-c3cc4cc(Cl)ccc4oc3=O)n2)cc1
- IC50 (HepG2 [14]): ≤ 3.25 µM

Compound: O=c1oc2ccccc2c2c1C(c1cc(Br)ccc1O)SCCN2 (stereo not drawn)
- IC50 (MCF7 [11]): 3.75 µg/mL
- IC50 (SK-N-MC): 3.75 µg/mL (≈ 9.28 µM)
- IC50 (MDA-MB-231 [17]): 3.75 µg/mL (≈ 9.28 µM)

Compound: CCOC1(c2ccccc2)Oc2c(c(=O)oc3ccccc23)/C1=C\C(=O)c1ccccc1 (stereo not drawn)
- IC50 (MCF7 [16]): 8 µM
- IC50 (HCT-15): 8 µM

Compound: CC1=CP(C(c2ccccc2)(c2ccccc2)c2ccccc2)Oc2c1c(=O)oc1ccccc21 (stereo not drawn)
- IC50 (MCF7 [16]): ≤ 3.89 µg/mL
- IC50 (HepG2 [18]): ≤ 3.89 µg/mL

Second part, led by results:

- GI50 (DU-145 [1]): 12 µM
- GI50 (NCI-H157): 12 µM
- GI50 (K562 [4]): 12 µM
Compound: O=c1oc2c(Br)cccc2cc1S(=O)(=O)Nc1ccc(Br)cc1
- GI50 [2]: 12 µM
- GI50 [3]: 12 µM

- IC50 [5]: ≤ 9 µM
- IC50 [6]: ≤ 9 µM
- IC50 [7]: ≤ 9 µM
- IC50 (MCF7 [8]): ≤ 11 µM
- IC50 (MDA-MB-231 [9]): ≤ 11 µM
Compound: COc1ccc2c(CSC3=CC(=O)c4ccccc4C3=O)cc(=O)oc2c1
- IC50 [10]: 18 µM

- IC50 (A549): 0.05 µM
Compound: COc1cccc(C2c3cc(C)ccc3Nc3c2c(=O)oc2ccccc32)c1 (stereo not drawn)

- IC50 (MCF7 [11]): 20.2 µM
- IC50 (K562 [12]): 9.3 µM
Compound: CCc1nc([N+](=O)[O-])c(N2CCN(/C(=N/Nc3ccc4c(C)cc(=O)oc4c3)C(C)=O)CC2)n1Cc1ccccc1

- IC50 (MCF7 [13]): < 10 µM
Compound: Cc1ccc(C(=O)c2cc(F)c(OCC(=O)NNC(=O)c3cc4ccccc4oc3=O)c(Cl)c2)cc1

- IC50 (KB): 5.18 µM
Compound: COc1cc(OC)cc(-c2cc3ccc(OC(C)=O)c(OC(C)=O)c3oc2=O)c1

- IC50 (MCF7 [13]): < 10 µM
Compound: Cc1cc(C(=O)c2ccccc2Br)ccc1OCC(=O)NNC(=O)c1cc2ccccc2oc1=O

- IC50 (NCI-H460): 10 µM
Compound: C/C(=N/NC(=O)c1cc2ccccc2oc1=O)c1cccnc1

- IC50 (MCF7 [11]): 0.52 µM
- IC50 (A549): 0.14 µM
Compound: Cc1ccc2c(c1)C(c1ccccc1)c1c(c3ccccc3oc1=O)N2 (stereo not drawn)

- IC50 (MCF7 [13]): < 10 µM
Compound: Cc1cc(C(=O)c2ccc(Cl)cc2Cl)ccc1OCC(=O)NNC(=O)c1cc2ccccc2oc1=O
